“Also recorded” adds a separate entry of the source. Where no end group is shown, it is not given here.
Columns and labels:
[1] = system: monoclonal antibody “Frida”; experiment: In vitro inhibition (competition) ELISA with mAb Frida on coated original CETP epitope; assay type: binding, mouse; conditions: for inhibition ELISA signal, first value column / inhibition ELISA signal, second value column: FIG. 18b, column without head; for inhibition ELISA signal, first value column / inhibition ELISA signal, second value column / inhibition ELISA signal, high / inhibition ELISA signal, low / inhibition ELISA signal, 2 μg peptide / inhibition ELISA signal, 20 μg peptide: detection αIgG1; for inhibition ELISA signal, high / inhibition ELISA signal, low / inhibition ELISA signal, 2 μg peptide / inhibition ELISA signal, 20 μg peptide: 2.5 ng mAb Frida; for inhibition ELISA signal, high: high peptide amount; for inhibition ELISA signal, low: low peptide amount; for inhibition in in vitro competition ELISA, mAb “Frida” (in words): monoclonal antibodies “Frida” and, where stated, “James”; for inhibition ELISA signal, 2 μg peptide / inhibition ELISA signal, 20 μg peptide: coat 1 μM peptide
Experimental: Different amounts of peptides (2 and 20 μg, as indicated in the respective figures) derived from Phage Display were incubated with the monoclonal antibody that was used for the screening procedure. Peptides diminishing subsequent binding of the antibody to the original CETP epitope (C-terminal 16 amino acids of CETP protein) coated on ELISA plates were considered as inhibiting. (Results see i.a. FIGS. 19a to 19c)

irrelevant peptide-BSA = experiment: Titer to irrelevant peptide in sera of immunised animals (peptide ELISA); assay type: in vivo, mouse; conditions: Table 1, mice, sera 2 weeks after 3rd injection
Experimental: Balb/c mice/30 μg Peptide, 2 injections in 2 week intervals. S3=2 weeks after 3rd injection. Alum as adjuvant. Titers against original epitope (p4073) induced by injection of mimotopes. Well coating: 50 μl of 1 μM p4073-BSA or 1 μg/ml activated KLH. Detection: αIgG:
Subcutaneous injections in the flank were performed in week 1, week 3 and week 7 with 30 μg peptide-KLH per mouse. Intradermal injections in the ear were performed in week 1, week 3 and week 6 with 10 μg peptide-KLH per mouse. Sera were taken 2 weeks after the 3rd injection. Vaccine formulation with Alum (always 1 mg per mouse): up to 250 μl, injected into one flank. The Alum formulation with 1 ml per mouse (500 μl into each flank) was in 1×PBS as buffer.
Vaccine formulation with Gerbu Adjuvant 100 (Gerbu Cat. Nr. #3100; always 50 μl adjuvant per mouse): 200 μl, 100 μl injected into each flank comprising 1×HEPES as buffer.
Female Balb/c mice, five mice per group, were subcutaneously immunized with 30 μg peptide coupled to KLH. Control groups were administered KLH or C-[…] (SEQ ID NO. 147). As adjuvant alum was used. […] The in vitro ELISA assay to determine the antibody titer was performed with pooled sera after two vaccinations in a two week interval (S2; see FIGS. 7a to 7d). The wells of the ELISA plate were coated with KLH (positive control), mimotope-BSA conjugate, C-[…] (SEQ ID NO. 147) and a irrelevant peptide-BSA conjugate (negative control). The detection was performed with anti-mouse IgG.

[2] = FIG. 18a, coat 1 μM 4073 peptide

C-FGFPAHVYIDWLQ (N-terminal cysteine; CETP mimotope) [p4630]
inhibition ELISA signal, first value column ([1]; coat 1 μM 4073 peptide): 2.131
inhibition ELISA signal, second value column ([1]; coat 1 μM 4073 peptide): 2.115

C-PAHVYIDWLQSLS (N-terminal cysteine; CETP mimotope) [p4629]
inhibition ELISA signal, first value column ([1]; coat 1 μM 4073 peptide): 0.313
inhibition ELISA signal, second value column ([1]; coat 1 μM 4073 peptide): 0.118

C-AAFAAHLLADFLQAAA (N-terminal Cys; CETP mimotope) [p4436]
inhibition ELISA signal, high ([1]; FIG. 18c, coat 1 μM 4073): 1.691
inhibition ELISA signal, low ([1]; FIG. 18c, coat 1 μM 4073): 1.632

C-FPEHLLVDFLQSL (N-terminal Cys) [reference compound]
inhibition in in vitro competition ELISA, mAb “Frida” (in words) [1]: not inhibiting in vitro

C-GFPEHLLVDFLQSLS (N-terminal Cys) [reference compound]
inhibition in in vitro competition ELISA, mAb “Frida” (in words) [1]: inhibiting in vitro

C-FPEHLLVDFLQSLS (N-terminal Cys) [reference compound]
inhibition in in vitro competition ELISA, mAb “Frida” (in words) [1]: inhibiting in vitro

C-FGFPSHIIIDWLQSLS (N-terminal Cys; CETP mimotope) [p4432]
inhibition ELISA signal, high ([1]; FIG. 18c, coat 1 μM 4073): 0.096
inhibition ELISA signal, low ([1]; FIG. 18c, coat 1 μM 4073): 0.635

p4181-KLH: F3-6 C-NFLKTLS coupled to KLH (CNFLKTLS; also: coupled to KLH)
titer, p irrelevant (irrelevant peptide-BSA; Alum s.c. (30 μg peptide)): no titer
titer, p irrelevant (irrelevant peptide-BSA; KLH/Alum i.d. (10 μg peptide)): no titer

FGFPEHLLVDFLQSLS-C (C-terminal Cys; CETP mimotope) [p1208, positive control peptide, reference compound]
inhibition ELISA signal, high [1, 2]: 0.093
inhibition ELISA signal, low [1, 2]: 0.712
inhibition ELISA signal, first value column ([1]; coat 1 μM 4073 peptide): 0.264
inhibition ELISA signal, second value column ([1]; coat 1 μM 4073 peptide): 0.079
inhibition ELISA signal, high ([1]; FIG. 18c, coat 1 μM 4073): 0.101
inhibition ELISA signal, low ([1]; FIG. 18c, coat 1 μM 4073): 0.942

FGFPAHVFIDWLQSLN-C [p5068]
inhibition ELISA signal, first value column ([1]; coat 1 μM 4073 peptide): 0.757
inhibition ELISA signal, second value column ([1]; coat 1 μM 4073 peptide): 0.271

C-PEHLLVDFLQSLS (N-terminal Cys) [reference compound]
inhibition in in vitro competition ELISA, mAb “Frida” (in words) [1]: evtl. slightly inhibiting in vitro

C-FGFPAHVFIDWLQ (N-terminal cysteine; CETP mimotope) [p4631]
inhibition ELISA signal, first value column ([1]; coat 1 μM 4073 peptide): 2.111
inhibition ELISA signal, second value column ([1]; coat 1 μM 4073 peptide): 2.147

C-FGFPQHLFTDWLQSLS (N-terminal cysteine; CETP mimotope) [p4481]
inhibition ELISA signal, high [1, 2]: 0.156
inhibition ELISA signal, low [1, 2]: 0.551

FGFPAHVYIDWLQSLS-C (C-terminal cysteine; CETP mimotope) [p5067]
inhibition ELISA signal, first value column ([1]; coat 1 μM 4073 peptide): 0.563
inhibition ELISA signal, second value column ([1]; coat 1 μM 4073 peptide): 0.217

C-DFGFPAHVTIDWLQSLN (N-terminal cysteine; CETP mimotope) [p4989]
inhibition ELISA signal, first value column ([1]; coat 1 μM 4073 peptide): 0.932
inhibition ELISA signal, second value column ([1]; coat 1 μM 4073 peptide): 0.274

C-PSHLIIDWLQ (N-terminal cysteine; CETP mimotope) [p4819]
inhibition ELISA signal, first value column ([1]; coat 1 μM 4073 peptide): 2.226
inhibition ELISA signal, second value column ([1]; coat 1 μM 4073 peptide): 2.158

C-FGFPEHVFIDWLQSLS (N-terminal cysteine; CETP mimotope) [p4477]
inhibition ELISA signal, high [1, 2]: 0.116
inhibition ELISA signal, low [1, 2]: 0.808

C-AAAPAHLLVDAAQAAA (N-terminal Cys; CETP mimotope) [p4437]
inhibition ELISA signal, high ([1]; FIG. 18c, coat 1 μM 4073): 1.674
inhibition ELISA signal, low ([1]; FIG. 18c, coat 1 μM 4073): 1.84

p4188-KLH: F3-38 C-GFLDSLM coupled to KLH (CGFLDSLM; also: coupled to KLH)
titer, p irrelevant (irrelevant peptide-BSA; Alum s.c. (30 μg peptide)): no titer
titer, p irrelevant (irrelevant peptide-BSA; KLH/Alum i.d. (10 μg peptide)): no titer

C-FGFPEHLLVDFLQSLS [p4073, reference compound]
inhibition ELISA signal, 2 μg peptide ([1]; FIG. 10a): 0.44
inhibition ELISA signal, 20 μg peptide ([1]; FIG. 10a): 0.1
inhibition ELISA signal, 2 μg peptide ([1]; FIG. 10b): 0.64
inhibition ELISA signal, 20 μg peptide ([1]; FIG. 10b): 0.15
inhibition ELISA signal, high [1, 2]: 0.094
inhibition ELISA signal, low [1, 2]: 0.537
inhibition ELISA signal, high ([1]; FIG. 18c, coat 1 μM 4073): 0.088
inhibition ELISA signal, low ([1]; FIG. 18c, coat 1 μM 4073): 0.554
inhibition in in vitro competition ELISA, mAb “Frida” (in words) [1]: inhibiting in vitro

C-FGFPAHVSIDWLQSLS (N-terminal cysteine; CETP mimotope) [Fr12/3/84 ext2]
inhibition in in vitro competition ELISA, mAb “Frida” (in words) [1]: significant inhibition; also recorded: Strongly inhibiting

— US8618046B2, “Treatment of atherosclerosis with cholesterol ester transport protein mimotopes” (Affiris AG, priority 2007, dated 2013)
